Source: US20210267197A1, “PEPTIDES SIMILAR TO THE NATURAL PEPTAIBOL TRICHOGIN GA IV WITH PHYTOSANITARY ACTIVITIES” (UNIVERSITA' DEGLI STUDI DI PADOVA, priority 2018, published 2021)

Legend:
[1] = system: Penicillium expansum; assay: In vitro inhibition of fungal spore germination, Penicillium expansum; assay type: cell-based; settings: for Concentration effective in vitro in inhibiting the germination of fungal spores with respect to the untreated control for at least 3 days: Penicillium expansum; for Time for which spore germination of P. expansum is inhibited: peptide at 15 μM, limited by duration of the experiment
[2] = system: Penicillium digitatum; assay: In vitro inhibition of fungal spore germination, Penicillium digitatum; assay type: cell-based; settings: for Concentration effective in vitro in inhibiting the germination of fungal spores with respect to the untreated control for at least 3 days: Penicillium digitatum; for Time for which spore germination of P. digitatum is inhibited: peptide at 15 μM, limited by duration of the experiment
[3] = system: Botrytis cinerea; assay: B. cinerea spore viability / germination assay with resazurin; assay type: cell-based; settings: for Concentration effective in vitro in inhibiting the germination of fungal spores with respect to the untreated control for at least 3 days: Botrytis cinerea; for Time for which spore germination of B. cinerea is inhibited: limited by duration of the experiment
[4] = system: Fusarium graminearum; assay type: cell-based
[5] = system: B. cinerea; assay: Rot symptoms from B. cinerea on vine leaves; assay type: in vivo, Botrytis cinerea; settings: 50 μM
[6] = system: Botrytis cinerea; assay: Bean leaves inoculated with Botrytis cinerea; assay type: in vivo
[7] = system: Plasmopara viticola; settings: for Prevention of development of the disease and production of sporangia of P. viticola: 50 μM aqueous solution, disks of vine leaves
Procedure: The histogram represents the average incidence (±standard error) of infections from P. viticola 12 days after inoculation obtained by performing at least 3 independent biological replicates. […] The incidence is calculated as a percentage ratio of the leaf disks showing the sporulation of the pathogen compared to the total of inoculated disks.
Glera vine leaves were inoculated with sporangia from the oomycete Plasmopara viticola, the causal agent of vine peronospora. The disks infected and then treated with peptides were incubated at 20/22° C. in conditions of high humidity (>92% RH) and in the dark (optimal conditions for the development of the disease) until the end of the experiment.

[8] = system: Penicillium italicum; assay: In vitro inhibition of fungal spore germination, Penicillium italicum; assay type: cell-based; settings: for Concentration effective in vitro in inhibiting the germination of fungal spores with respect to the untreated control for at least 3 days: Penicillium italicum; for Time for which spore germination of Penicillium italicum is inhibited: peptide at 15 μM, limited by duration of the experiment
[9] = system: Pyricularia oryzae; assay type: cell-based

Q: With “1-octanoyl-Aib-Gly-Leu-Aib-Gly-Lys(HCl)-Leu-Aib-Gly-Ile-Lol [Peptide K6-Lol]” as the substance, how does the “Concentration effective in vitro in inhibiting the germination of fungal spores with respect to the untreated control for at least 3 days” value [1] read?
A: 15 µM

Q: What about the “Concentration effective in vitro in inhibiting the germination of fungal spores with respect to the untreated control for at least 3 days” value [2] of the same substance?
A: 15 µM

Q: And the “Concentration effective in vitro in inhibiting the germination of fungal spores with respect to the untreated control for at least 3 days” value [3]?
A: 15 µM

Q: What does the source list for “1-octanoyl-Aib-Gly-Leu-Aib-Lys(HCl)-Lys(HCl)-Leu-Aib-Gly-Ile-Leu-NH2 [PEP4-rink]”?
A: Concentration effective in vitro in inhibiting the germination of fungal spores with respect to the untreated control for at least 3 days [1]: 15 µM; Concentration effective in vitro in inhibiting the germination of fungal spores with respect to the untreated control for at least 3 days [4]: 15 µM; Concentration effective in vitro in inhibiting the germination of fungal spores with respect to the untreated control for at least 3 days [2]: 15 µM; Reduction in the incidence of rot symptoms from B. cinerea on vine leaves [5]: 70%; Concentration effective in vitro in inhibiting the germination of fungal spores with respect to the untreated control for at least 3 days [3]: 3 µM; Time for which spore germination of B. cinerea is inhibited ([3]; peptide at 3 μM): at least 14 days; Time for which spore germination of B. cinerea is inhibited ([3]; peptide at 15 μM): at least 21 days; Reduction in the incidence of rot symptoms from B. cinerea on bean leaves ([6]; 15 μM, 7 days after inoculation): 90%; Reduction in the incidence of B. cinerea (rot symptoms) on bean leaves ([6]; 50 μM): 95%

Q: Which results are given for “1-octanoyl-Aib-Gly-Leu-Aib-Lys(HCl)-Lys(HCl)-Leu-Aib-Gly-Ile-Lol [PEP4]”?
A: Incidence of the disease (leaf disks showing sporulation / total inoculated disks) ([7]; 30 μM, 12 days after inoculation): < 20%; Prevention of development of the disease and production of sporangia of P. viticola [7]: almost completely prevents both the development of the disease and the production of sporangia; Time of protection against P. viticola (no disease / no sporangia) ([7]; 50 μM, limited by duration of the experiment): 15 days; Concentration effective in vitro in inhibiting the germination of fungal spores with respect to the untreated control for at least 3 days [8]: 15 µM; Concentration effective in vitro in inhibiting the germination of fungal spores with respect to the untreated control for at least 3 days [1]: 15 µM; Concentration effective in vitro in inhibiting the germination of fungal spores with respect to the untreated control for at least 3 days [2]: 15 µM; Concentration effective in vitro in inhibiting the germination of fungal spores with respect to the untreated control for at least 3 days [9]: 15 µM; Inhibition of spore germination of Pyricularia oryzae ([9]; 15 μM): effectively inhibit the spore germination; Germination of conidia of B. cinerea ([3]; 50 μM, conidia 5×10^5/ml in PDB): germination of the conidia is not observed; Concentration effective in vitro in inhibiting the germination of fungal spores with respect to the untreated control for at least 3 days [3]: 3 µM; Time for which spore germination of B. cinerea is inhibited ([3]; peptide at 3 μM): at least 7 days; Protection of bean leaves against infection by Botrytis cinerea ([6]; 50 μM aqueous solution, for at least seven days (duration of the experiment)): protects the bean leaves against the infection caused by Botrytis cinerea

Q: How did the “Concentration effective in vitro in inhibiting the germination of fungal spores with respect to the untreated control for at least 3 days” value [8] turn out when “1-octanoyl-Aib-Gly-Leu-Aib-Lys(HCl)-Lys(HCl)-Leu-Leu-NH2 [PEP4-corto1-rink]” was run?
A: 15 µM

Q: And the “Time for which spore germination of Penicillium italicum is inhibited” value (“Time … of Penicillium italicum is inhibited” below) [8]?
A: for 6 days (duration of the experiment)

Q: What about the “Time … of Penicillium italicum is inhibited” value ([8]; listed as Pep4-cortol-rink) of the same substance?
A: 6 days

Q: And the “Time for which spore germination of P. expansum is inhibited” value (shortened to “Time … of P. expansum is inhibited”) [1]?
A: for 6 days (duration of the experiment)

Q: What about the “Time … of P. expansum is inhibited” value ([1]; listed as Pep4-cortol-rink) of the same substance?
A: 6 days

Q: What about the “Time for which spore germination of P. digitatum is inhibited” value (“Time … of P. digitatum is inhibited” below) [2] of the same substance?
A: for 6 days (duration of the experiment)

Q: What about the “Time … of P. digitatum is inhibited” value ([2]; listed as Pep4-cortol-rink) of the same substance?
A: 6 days

Q: “1-octanoyl-Aib-Gly-Leu-Aib-Lys(HCl)-Lys(HCl)-Leu-Lol [PEP4-corto]” was tested. Which “Prevention of development of the disease and production of sporangia of P. viticola” value [7] did it give?
A: almost completely prevents the development of the disease and the production of sporangia

Q: And the “Concentration effective in vitro in inhibiting the germination of fungal spores with respect to the untreated control for at least 3 days” value [3]?
A: 3 µM

Q: With “1-octanoyl-Aib-Lys(HCl)-Leu-Aib-Lys(HCl)-Gly-Leu-Aib-Gly-Ile-Lol [Peptide K25]” as the substance, how does the “Concentration effective in vitro in inhibiting the germination of fungal spores with respect to the untreated control for at least 3 days” value [2] read?
A: 15 µM

Q: And the “Time … of P. digitatum is inhibited” value [2]?
A: of Penicillium digitatum for more than 5 days

Q: Which “Concentration effective in vitro in inhibiting the germination of fungal spores with respect to the untreated control for at least 3 days” value [8] does the source give for “1-octanoyl-Aib-Lys(HCl)-Lys(HCl)-Leu-Aib-Gly-Ile-Leu-NH2 [PEP4-corto2-rink]” here?
A: 15 µM

Q: What about the “Time … of Penicillium italicum is inhibited” value ([8]; listed as Pep4-corto2-rink) of the same substance?
A: 15 days

Q: What about the “Time … of P. expansum is inhibited” value ([1]; listed as Pep4-corto2-rink) of the same substance?
A: 15 days

Q: And the “Time … of P. digitatum is inhibited” value ([2]; listed as Pep4-corto2-rink)?
A: 15 days

Q: What about the “Time for which spore germination of B. cinerea is inhibited” value ([3]; peptide at 15 μM, listed as Pep4-corto2-rink) of the same substance?
A: 8 days
